According to ChEMBL document CHEMBL1159177, “Novel A-ring cleaved analogs of oleanolic and ursolic acids which affect growth regulation in NRP.152 prostate cells” (Bioorg Med Chem Lett, 1997):
pIC50: −log10 of the molar value.

Experiment: In vitro inhibitory concentration against cell proliferation of nonmalignant, nontumerigenic prostate cells (NRP.152)
Format: functional, cell-based
Conditions: Rattus norvegicus

Compound	pIC50
CC1(C)CC[C@]2(C(=O)O)CC[C@]3(C)C(=CC[C@@H]4[C@@]5(C)CCC(=O)C(C)(C)[C@@H]5CC[C@]43C)[C@@H]2C1 [OLEANONIC ACID]	< 5.30
C=C(C)[C@@H]1CC[C@]2(C)[C@H](CC=C3C4[C@@H](C)[C@H](C)CC[C@]4(C(=O)O)CC[C@]32C)[C@@]1(C)CCC=O (some centres not stated)	5.62
CC1(C)CC[C@]2(C(=O)O)CC[C@]3(C)C(=CC[C@@H]4[C@@]5(C)CC[C@H](O)C(C)(C)[C@@H]5CC[C@]43C)[C@@H]2C1 [OLEANOLIC_ACID]	< 5.30
C=C(C)[C@@H]1CC[C@]2(C)[C@H](CC=C3C4[C@@H](C)[C@H](C)CC[C@]4(C(=O)O)CC[C@]32C)[C@@]1(C)CCC#N (some centres not stated)	< 5.30
C=C(C)[C@@H]1CC[C@]2(C)[C@H](CC=C3C4CC(C)(C)CC[C@]4(C(=O)O)CC[C@]32C)[C@@]1(C)CCC(=O)O (some centres not stated)	< 5.30
C=C(C)[C@@H]1CC[C@]2(C)[C@H](CC=C3C4CC(C)(C)CC[C@]4(C(=O)O)CC[C@]32C)[C@@]1(C)CCC=O (some centres not stated)	5.82
CC(C)[C@@H]1CC[C@]2(C)[C@H](CC=C3C4CC(C)(C)CC[C@]4(C(=O)O)CC[C@]32C)[C@@]1(C)CCCN (some centres not stated)	6.15
C=C(C)[C@@H]1CC[C@]2(C)[C@H](CC=C3C4CC(C)(C)CC[C@]4(C(=O)O)CC[C@]32C)[C@@]1(C)CCC#N (some centres not stated)	5.42
C=C(C)[C@@H]1CC[C@]2(C)[C@H](CC=C3C4[C@@H](C)[C@H](C)CC[C@]4(C(=O)O)CC[C@]32C)[C@@]1(C)CCC(=O)O (some centres not stated)	< 5.30
C[C@@H]1CC[C@]2(C(=O)O)CC[C@]3(C)C(=CC[C@@H]4[C@@]5(C)CC[C@H](O)C(C)(C)[C@@H]5CC[C@]43C)C2[C@H]1C (some centres not stated)	< 5.30
CC(C)[C@@H]1CC[C@]2(C)[C@H](CC=C3C4[C@@H](C)[C@H](C)CC[C@]4(C(=O)O)CC[C@]32C)[C@@]1(C)CCCN (some centres not stated)	6.52
C[C@@H]1CC[C@]2(C(=O)O)CC[C@]3(C)C(=CC[C@@H]4[C@@]5(C)CCC(=O)C(C)(C)[C@@H]5CC[C@]43C)C2[C@H]1C (some centres not stated)	< 5.30
